# Laboratory results reported in article PMC6154694, “Absorption, Metabolic Stability, and Pharmacokinetics of Ginger Phytochemicals” (Molecules : A Journal of Synthetic Chemistry and Natural …, 2017).
# Experiments:
# [1] = Mouse pharmacokinetic study of oral GE with and without ketoconazole, plasma with and without β-glucuronidase treatment; assay type: in vivo, male mice (C57BL6J); conditions: for Concentration Ratio (Total/Free) of GE Phenolics: GE administered group; for Concentration Ratio (Total/Free) of GE Phenolics / concentration at 0 h / concentration at 0.087 h / concentration at 0.167 h / concentration at 0.25 h / concentration at 0.5 h / concentration at 1 h / concentration at 2 h / concentration at 3 h / concentration at 4 h / concentration at 6 h / concentration at 8 h / concentration at 12 h: mouse plasma; for AUC(0-t) / Cmax / Tmax / concentration at 0 h / concentration at 0.087 h / concentration at 0.167 h / concentration at 0.25 h / concentration at 0.5 h / concentration at 1 h / concentration at 2 h / concentration at 3 h / concentration at 4 h / concentration at 6 h / concentration at 8 h / concentration at 12 h: male, C57BL6J; for AUC(0-t) / Cmax / Tmax: mouse, plasma, po, 250 mg/kg
# Experimental: A solution formulation of GE was prepared by using 5% ethanol, 5% Tween 80, 40% polyethylene glycol, and 50% corn oil. The dose volume was 10 mL/kg and the dose administered was 250 mg/kg GE.
# Pharmacokinetic study in male mice (C57BL6J, Harlan Laboratories, Indianapolis, IN, USA) was run with 36 animals in each group at a GE dose of 250 mg/kg with a dose volume of 10 mL/kg. One group was given GE alone and in the second group GE was co-administered with KTZ (50 mg/kg). A terminal sampling design was used to collect blood samples at 0 (pre-dose), 0.08, 0.16, 0.25, 0.5, 1, 2, 3, 4, 6, 8, and 12 h. At each time, 1 mL of blood was collected in ethylenediaminetetraacetic acid di-potassium salt (K2EDTA) tubes (BD Biosciences, Franklin Lakes, NJ, USA). Plasma was separated by centrifugation of samples at 4000 rpm for 10 min and stored below −60 °C till bioanalysis. All experiments were performed with approval from the Institutional Animal Care and Use Committee (IACUC, approval code: A14031). All animals were acclimatized for five days before dosing in the experimental area. Food and water was provided ad libitum throughout the study period. Animals were marked and housed (three per cage, n = 36 per group) in polypropylene cages and maintained in controlled environmental conditions with 12 h light and dark cycles. The temperature and humidity of the room was maintained between 22 ± 3 °C and 30% to 50%, respectively, and approximately 10–12 fresh air change cycles per hour.
# To confirm the presence of GE glucuronide conjugates, plasma (100 μL) was treated with βgd (20 μL, 500 units) and incubated at 37 °C for 1 h. Each sample was analyzed twice with and without β-gd treatment. Samples without gde treatment were diluted with 20 μL of buffer. Total (conjugated + free) and free ginger phenolics data were reported following bioanalysis.
# All in vitro and in vivo samples were processed by protein precipitation method. An aliquot (100 μL) of the sample was spiked with 200 μL of acetonitrile containing dihydrocapsaicin as internal standard (IS) and vortex mixed for 3 min. The tubes were centrifuged at 12,000 rpm for 10 min and an aliquot of supernatant was transferred into autosampler vials for analysis. The stock solutions of 6G, 8G, 10G, and 6S were prepared in ACN/water (70:30) at 1 mg/mL. A calibration curve (CC) range of 2–2000 ng/mL was employed for the quantification of analytes and IS concentration was 150 ng/mL for each analysis. The CC consisted of blank, blank with IS and seven non-zero calibration standards. The calibration standards were within ±15% of the nominal concentration and lower limit of quantification was within ±20% of nominal. All samples were analyzed using liquid chromatography tandem mass spectrometry (LC-MS/MS) method (Agilent 6410 series, Santa Clara, CA, USA). A positive ionization mode with multiple reaction monitoring (MRM, m/z Q1/Q3) of 6G (m/z 277.1/177.1, retention time (RT) 2.0 min), 8G (m/z 305.1/177.1, RT 4.0 min), 10G (m/z 333.1/177.1, RT 7.7 min), 6S (m/z 277.1/137.1, RT 5.1 min), and IS (m/z 308.2/137.1, RT 3.4 min) was employed. The ion spray voltage was set at 3500 V, ionization temperature was set to 300 °C and drying gas flow rate was 10 L/min. Data acquisition and quantitation were performed using Mass Hunter software (Agilent Technologies, Wilmington, DE, USA). Separation was achieved using HP1100 series LC (Agilent Technologies) with an Agilent Zorbax reversed-phase (SB-C18, 2.1 × 50 mm, 5.0 μm) column. A gradient method was employed to separate the individual GE phenolics using mobile phase A (0.1% formic acid in water) and mobile phase B (Acetonitrile). The gradient elution method with 50% B at 0 min, 90% B at 5 min, held for 2.1 min, back to 50% B at 7.1 min with a flow rate of 0.2 mL/min. An injection volume of 2 μL was used for analysis. […]
# [2] = Liver microsomal stability, mouse; assay type: in vitro ADME, CD1 mouse; conditions: protein 0.5 mg/mL
# Experimental: Pooled liver microsomes from CD1 mouse, IGS Sprague-Dawley rat, Beagle dog, and mixed gender human were used for assays. Incubations (1 mL) consisted of liver microsomes (0.5 mg/mL), NADPH (1 mM) and 100 mM sodium phosphate buffer (pH 7.4). Following pre-incubation (10 min, 37 °C), reactions were initiated by spiking ACN/DMSO (80:20) stock solutions of GE phenolics (5 μL, 10 μM). Samples (100 μL) were withdrawn at 0, 5, 10, 15, 20 and 30 min and quenched with 200 μL acetonitrile containing internal standard. Concomitant NADPH-free control incubations were prepared similarly.
# [3] = pH dependent kinetic solubility in hydrochloride, citrate and phosphate buffers; assay type: physicochemical; conditions: 23 °C, kinetic from dmso stock, tested 10 to 100 µM, n = 2
# Experimental: Calibration standards were prepared by spiking 5 μL of DMSO stock solutions into 995 μL acetonitrile/buffer (1:1) mixture. Following centrifugation (10,000 rpm, 10 min, 25 °C) the reaction samples were diluted 1:1 with acetonitrile.
# [4] = 250 mg/kg GE + 50 mg/kg KTZ oral, +KTZ −βgd
smiles,measurement,setting,value
"CCCCC/C=C/C(=O)CCc1ccc(O)c(OC)c1 [6S, 6-shogaol]",AUClast Ratio,"[1]; +KTZ +βgd, reference GE group co-administered with KTZ untreated with βgd",14
same,AUClast Ratio,"[1]; +KTZ +βgd, reference GE group untreated with βgd",110
same,AUClast Ratio,"[1]; +KTZ −βgd, reference GE group untreated with βgd",8
same,Concentration Ratio (Total/Free) of GE Phenolics,[1]; 0 h,0
same,Concentration Ratio (Total/Free) of GE Phenolics,[1]; 0.087 h,48
same,Concentration Ratio (Total/Free) of GE Phenolics,[1]; 0.167 h,19
same,Concentration Ratio (Total/Free) of GE Phenolics,[1]; 0.25 h,0
same,Concentration Ratio (Total/Free) of GE Phenolics,[1]; 0.5 h,83
same,Concentration Ratio (Total/Free) of GE Phenolics,[1]; 1 h,1
same,Concentration Ratio (Total/Free) of GE Phenolics,[1]; 2 h,16
same,Concentration Ratio (Total/Free) of GE Phenolics,[1]; 3 h,0
same,Concentration Ratio (Total/Free) of GE Phenolics,[1]; 4 h,0
same,Concentration Ratio (Total/Free) of GE Phenolics,[1]; 6 h,0
same,Concentration Ratio (Total/Free) of GE Phenolics,[1]; 8 h,0
same,Concentration Ratio (Total/Free) of GE Phenolics,[1]; 12 h,0
same,AUC(0-t),"[1]; 250 mg/kg GE oral, −βgd",1.92 ng·h/mL
same,Cmax,"[1]; 250 mg/kg GE oral, −βgd",3.88 ng/mL
same,Tmax,"[1]; 250 mg/kg GE oral, −βgd",10 min
same,AUC(0-t),[1]; [4],15.1 ng·h/mL
same,Cmax,[1]; [4],12.4 ng/mL
same,Tmax,[1]; [4],60 min
same,concentration at 0 h,"[1]; 250 mg/kg GE oral, 0 h, −βgd",0 ng/mL
same,concentration at 0.087 h,"[1]; 250 mg/kg GE oral, 0.087 h, −βgd",3.17 ± 2.56 ng/mL
same,concentration at 0.167 h,"[1]; 250 mg/kg GE oral, 0.167 h, −βgd",4.04 ± 5.37 ng/mL
same,concentration at 0.25 h,"[1]; 250 mg/kg GE oral, 0.25 h, −βgd",0.39 ± 0.55 ng/mL
same,concentration at 0.5 h,"[1]; 250 mg/kg GE oral, 0.5 h, −βgd",1.26 ± 1.78 ng/mL
same,concentration at 1 h,"[1]; 250 mg/kg GE oral, 1 h, −βgd",0.67 ± 0.95 ng/mL
same,concentration at 2 h,"[1]; 250 mg/kg GE oral, 2 h, −βgd",0.38 ± 0.54 ng/mL
same,concentration at 3 h,"[1]; 250 mg/kg GE oral, 3 h, −βgd",0 ng/mL
same,concentration at 4 h,"[1]; 250 mg/kg GE oral, 4 h, −βgd",0 ng/mL
same,concentration at 6 h,"[1]; 250 mg/kg GE oral, 6 h, −βgd",0 ng/mL
same,concentration at 8 h,"[1]; 250 mg/kg GE oral, 8 h, −βgd",0.05 ± 0.08 ng/mL
same,concentration at 12 h,"[1]; 250 mg/kg GE oral, 12 h, −βgd",0.37 ± 0.23 ng/mL
same,concentration at 0 h,"[1]; 250 mg/kg GE with 50 mg/kg ketoconazole oral, 0 h, −βgd",0 ng/mL
same,concentration at 0.087 h,"[1]; 250 mg/kg GE with 50 mg/kg ketoconazole oral, 0.087 h, −βgd",0.05 ± 0.07 ng/mL
same,concentration at 0.167 h,"[1]; 250 mg/kg GE with 50 mg/kg ketoconazole oral, 0.167 h, −βgd",0.94 ± 1.33 ng/mL
same,concentration at 0.25 h,"[1]; 250 mg/kg GE with 50 mg/kg ketoconazole oral, 0.25 h, −βgd",0 ng/mL
same,concentration at 0.5 h,"[1]; 250 mg/kg GE with 50 mg/kg ketoconazole oral, 0.5 h, −βgd",18600 ng/mL
same,concentration at 1 h,"[1]; 250 mg/kg GE with 50 mg/kg ketoconazole oral, 1 h, −βgd",12.5 ± 17.6 ng/mL
same,concentration at 2 h,"[1]; 250 mg/kg GE with 50 mg/kg ketoconazole oral, 2 h, −βgd",75900 ng/mL
same,concentration at 3 h,"[1]; 250 mg/kg GE with 50 mg/kg ketoconazole oral, 3 h, −βgd",2.33 ± 3.3 ng/mL
same,concentration at 4 h,"[1]; 250 mg/kg GE with 50 mg/kg ketoconazole oral, 4 h, −βgd",0 ng/mL
same,concentration at 6 h,"[1]; 250 mg/kg GE with 50 mg/kg ketoconazole oral, 6 h, −βgd",0 ng/mL
same,concentration at 8 h,"[1]; 250 mg/kg GE with 50 mg/kg ketoconazole oral, 8 h, −βgd",0 ng/mL
same,concentration at 12 h,"[1]; 250 mg/kg GE with 50 mg/kg ketoconazole oral, 12 h, −βgd",0 ng/mL
same,"remaining at 0.5 h, 10 µM","[2]; CD1, pooled liver microsomes, pH 7.4, substrate 10 µM, n = 2, read-out: % Remaining at 30 min",3%
same,Intrinsic Clearance,"[2]; mouse liver microsomes, substrate 10 µM, 45 mg protein/g liver",15.7 mL/min/g Liver
same,solubility at 2 h,"[3]; 100 mM citrate buffer, aqueous buffer, pH 4, citrate buffer",< 10 µM
same,solubility at 2 h,"[3]; 100 mM phosphate buffer, aqueous buffer, pH 7.4, phosphate buffer",< 10 µM
same,solubility at 2 h,"[3]; simulated gastric fluid, pH 2, hydrochloride buffer",< 10 µM
